Results taken from patent US8227207B2, “Bioactive peptides derived from the proteins of egg white by means of enzymatic hydrolysis” (Consejo Superior de Investigaciones Cientifcas, priority 2004, dated 2012).
Residues, ends and D or L forms follow the SMILES beside them.

Molecular target: T1, angiotensin converting enzyme (ACE, EC 3.4.15.1) (Oryctolagus cuniculus, UniProt P12822)
T1 sequence (P12822 34-1310): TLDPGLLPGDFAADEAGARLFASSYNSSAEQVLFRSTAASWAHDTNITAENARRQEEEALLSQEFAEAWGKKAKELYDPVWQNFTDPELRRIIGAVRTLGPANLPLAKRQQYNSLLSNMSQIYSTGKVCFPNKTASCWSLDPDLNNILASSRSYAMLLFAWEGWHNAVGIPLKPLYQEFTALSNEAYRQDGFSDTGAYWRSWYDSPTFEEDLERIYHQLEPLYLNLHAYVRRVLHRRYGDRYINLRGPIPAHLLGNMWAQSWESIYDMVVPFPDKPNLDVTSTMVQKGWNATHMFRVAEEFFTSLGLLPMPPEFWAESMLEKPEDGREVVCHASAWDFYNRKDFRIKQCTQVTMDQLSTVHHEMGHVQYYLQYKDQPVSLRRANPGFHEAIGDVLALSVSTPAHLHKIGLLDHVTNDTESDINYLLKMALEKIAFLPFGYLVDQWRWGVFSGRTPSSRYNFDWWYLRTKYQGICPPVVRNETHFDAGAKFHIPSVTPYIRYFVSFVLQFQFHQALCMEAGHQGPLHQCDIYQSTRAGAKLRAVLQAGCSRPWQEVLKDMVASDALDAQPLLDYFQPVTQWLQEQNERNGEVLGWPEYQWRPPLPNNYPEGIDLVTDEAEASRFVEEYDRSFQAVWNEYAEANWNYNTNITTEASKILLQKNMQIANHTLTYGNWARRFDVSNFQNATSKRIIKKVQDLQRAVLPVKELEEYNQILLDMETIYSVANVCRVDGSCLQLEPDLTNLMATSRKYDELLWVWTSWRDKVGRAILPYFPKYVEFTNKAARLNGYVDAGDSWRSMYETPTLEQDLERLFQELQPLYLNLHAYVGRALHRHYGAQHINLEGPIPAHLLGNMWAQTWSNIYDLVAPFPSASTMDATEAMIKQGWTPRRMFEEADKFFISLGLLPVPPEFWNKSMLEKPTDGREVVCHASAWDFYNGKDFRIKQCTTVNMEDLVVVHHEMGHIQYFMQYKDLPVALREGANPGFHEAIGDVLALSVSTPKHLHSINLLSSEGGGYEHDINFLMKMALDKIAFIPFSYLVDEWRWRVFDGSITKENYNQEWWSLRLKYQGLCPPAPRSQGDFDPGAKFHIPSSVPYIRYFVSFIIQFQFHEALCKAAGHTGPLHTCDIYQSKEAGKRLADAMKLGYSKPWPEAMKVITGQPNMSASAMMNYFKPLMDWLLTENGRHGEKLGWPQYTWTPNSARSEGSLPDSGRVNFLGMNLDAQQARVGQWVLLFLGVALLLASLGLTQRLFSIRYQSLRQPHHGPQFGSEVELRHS
Assay type: biochemical
Protocol: The inhibitory activity of the angiotensin converting enzyme (ACE) is measured in vitro according to the method of D. W. Cushman and H. S. Cheung (Spectrophotometric assay and properties of the angiotensin-converting enzyme of rabbit lung. Biochemical Pharmacology, 1971, 20: 1637-1648), later on modified by Y. K. Kim, S. Yoon, D. Y. Yu, B. Lönnerdal and B. H. Cheung (Novel angiotensin-I-converting enzyme inhibitory peptides derived from recombinant human αs1-casein expressed in Escherichia coli, Journal of Dairy Research 1999, 66, 431-439).
The substrate hippuryl histidyl leucine (HHL, Sigma Chemicals Co., St. Louis, Mo., USA) is dissolved in a 0.1 M borate buffer with 0.3 M NaCl pH 8.3 to obtain a final concentration of 5 mM. To 100 μl of substrate are added 40 μl of each of the samples whose ACEI activity it is wished to determine. The ACE enzyme (EC 3.4.15.1, Sigma) is added, dissolved in 50% glycerol and diluted 1/10 in bidistilled water at the moment of conducting the assay. The reaction is carried out at 37° C. for 30 minutes in a water-bath. The enzyme is deactivated by lowering the pH with 150 μl of 1 N HCl. The hippuric acid formed is extracted with 1000 μl of ethyl acetate. Following vortex stirring for 20 seconds, it is centrifuged at 4000 rpm for 10 minutes at room temperature. 750 μl of the organic phase are taken and evaporated by heating at 95° C. for 10 minutes. The hippuric acid residue is redissolved in 800 μl of bidistilled water and, following stirring for 20 seconds, the absorbency at 228 nm is measured in a Dur-70 spectrophotometer from Beckman Instruments, Inc., Fullerton, USA.
In order to calculate the percentage of ACEI activity, the following formula is used
The blank is used for correcting the background absorbency. This contains substrate, enzyme and 20 μl of bidistilled water in place of the sample, and the reaction is halted at zero time. The control implies a hundred percent of the enzymatic action on the substrate in the absence of inhibitors and contains 20 μl of water in place of the sample and is incubated the same time as the sample.
The results are presented as the IC50 (μM or μg/ml) or concentration at which 50% of the enzyme's activity is inhibited. The concentration of protein is determined by means of the bicinchonomic acid (BCA) assay (Pierce, Rockford, Ill., USA) using bovine seroalbumin as reference.

With `CC[C@H](C)[C@H](NC(=O)[C@@H]1CCCN1C(=O)[C@H](Cc1ccc(O)cc1)NC(=O)[C@H](CCCNC(=N)N)NC(=O)[C@H](CCC(=O)O)NC(=O)[C@H](CCC(=O)O)NC(=O)[C@H](C)NC(=O)[C@@H](N)Cc1ccc(O)cc1)C(=O)N[C@@H](CC(C)C)C(=O)O` [SEQ. ID. N^o 6] (H-YAEERYPIL-OH; N-terminus and C-terminus assumed) the “ACEI activity in vitro (in words)” value (peptides) was “potent ACEI activity” and the IC50 (read-out: ACEI activity IC50, synthetic peptides) was 4.7 µM.
